Test results: article PMC8020795 (Proceedings of the National Academy of Sciences of the …, 2021)

Key:
[1] = system: other chemokine receptors (10 CCRs, 7 CXCRs, and 1 CX3CR subtypes); experiment: PathHunter β-arrestin assay, chemokine receptor selectivity; format: cell-based; conditions: 10 µM
From the text: (§1) Table: List of genes examined by real-time PCR and the primer sequences used.
(§2) Genes Forward primers Reverse primers […]
(§3) Vim 5’-[…]-3’ 5’-[…]-3’ […]
(§4) Zeb2 5’-[…]-3’ 5’-[…]-3’
(§5) Twist1 5’-[…]-3’ 5’-[…]-3’
(§6) Cdh1 5’-[…]-3’ 5’-[…]-3’
(§7) Mta3 5’-[…]-3’ 5’-[…]-3’ […]
(§8) Off-target standard assays
(§9) Methods employed in this study have been adapted from the scientific literature to […]
(§10) maximize reliability and reproducibility. Reference standards were run as an integral part of […]
(§11) each assay to ensure the validity of the results obtained. Radioligand binding Assays were […]
(§12) performed under conditions described in the accompanying "Methods" section of this report […]
(§13) by Eurofins Panlabs, Inc (Taipei, Taiwan, ROC).
(§14) BPRCX807 were tested in the hERG (hERG-CHO, automated patch-clamp) assay and determined at Eurofins Panlabs (Missouri, USA). The experiment was accepted in accordance with Eurofins validation Standard Operating Procedure.
(§15) Selectivity Screening of various chemokine receptors
(§16) The results were performed by Eurofins DiscoverX (Fremont, California, USA). The […]
(§17) PathHunter® β -Arrestin assay was performed in a homogenous, non-imaging assay format […]
(§18) using a technology developed by DiscoverX called Enzyme Fragment Complementation […]
(§19) called Enzyme Acceptor (EA). PK and EA are then expressed as fusion proteins in the cell, […]
(§20) restoring β-Gal activity which is measured using chemiluminescent PathHunter® Detection […]

[2] = biological target: CXCR4 (Homo sapiens, UniProt P61073); experiment: as above; format: cell-based
From the text: as §1, §2, §3, §4, §5, §6, §7, §8, §9, §10, §11, §12, §13, §14, §15, §16, §17, §18, §19, §20

[3] = system: HCA-1 cells; experiment: EMT marker expression under hypoxia (qRT-PCR); format: cell-based, murine; conditions: hypoxic conditions (1% oxygen)
Procedure: Signaling, Danvers, MA) or β-actin (Sigma-Aldrich, St. Louis, MO) before incubation with HRP-conjugated secondary antibodies (Antibodies Inc., Davis, CA) for 1 h. Autoradiography was conducted after ECL reagent (Thermo Scientific, Rockford, IL) was added to the […]
(§21) Reverse transcription quantitative real time PCR
(§22) Total RNA was extracted from HCA-1 cells using the RNeasy Mini Kit (Qiagen, CA, USA). cDNAs were synthesized using the High-Capicity cDNA Reverse Transcription Kit (Applied Biosystems, CA, USA). Primers specific for Slug, Fn1, Cdh2, Vim, Foxc2, Zeb1, Zeb2, Twist1, Cdh1, Mta3, Cldn3, Cldn5, β-actin and GAPDH were used, and relative gene expression was determined using Real-Time SYBR Green PCR Master Mix (Applied Biosystems, CA, USA) on a QPCR System. The comparative threshold cycle method was used to calculate fold change in gene expression, which was normalized to β-actin as a […]

[4] = system: CXCR4+CD34+ stem cells; experiment: CXCR4+CD34+ stem cell mobilization; format: in vivo, C57BL/6 mice; conditions: 6 mg/kg SC, peripheral blood 2 h after dosing
Procedure: Cy7, and CD206-APC (BioLegend, San Diego, CA) antibodies, as previously described.[8] Flow cytometry data were acquired on a BD FACSAria III flow cytometer and analyzed with […]
C57BL/6 male mice were treated with potential CXCR4 antagonist individually by subcutaneous injection, and then blood samples containing mobilized stem/progenitor cells were collected 2 hours later. After labeled with specific antibodies, including APC-conjugated anti-CXCR4 (clone 2B11; eBioscience) and FITC-conjugated anti-CD34 (clone RAM34; eBioscience), cells were washed, characterized and quantified by flow cytometer (Guava Technologies, Hayward, CA, USA). Each data point included at least 60,000 events for analysis of other cell types.
Western blotting was conducted by following standard procedures. HCA-1 or JHH-7 cells (10^5 cells per well) were seeded in 12-well plates (Costar, IL), incubated for 12 h and […]
as §21
as §22, with “System.” for “System. The comparative threshold cycle method was used to calculate fold change in gene expression, which was normalized to β-actin as a”

CXCR4, sequence (P61073 whole entry): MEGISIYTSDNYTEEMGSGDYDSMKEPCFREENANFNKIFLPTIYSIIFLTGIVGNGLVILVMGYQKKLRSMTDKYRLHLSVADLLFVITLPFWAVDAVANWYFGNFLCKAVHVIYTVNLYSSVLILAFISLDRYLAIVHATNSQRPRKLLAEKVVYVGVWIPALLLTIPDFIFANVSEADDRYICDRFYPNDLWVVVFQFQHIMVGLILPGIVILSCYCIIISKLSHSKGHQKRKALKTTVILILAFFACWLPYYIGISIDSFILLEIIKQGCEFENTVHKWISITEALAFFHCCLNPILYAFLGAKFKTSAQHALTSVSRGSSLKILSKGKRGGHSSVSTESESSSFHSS

Cc1cc(NC2CCN(C(=O)CCNCC(=O)O)CC2)nc(NCc2nc(CCCNCCCNC3CCCCC3)co2)n1 [BPRCX807]
Inhibition of other chemokine receptors (β-arrestin assay) [1]: < 10% | inhibition at 10 µM [2]: 100% | Expression of epithelial markers (E-cadherin, MTA-3, CLDN3, CLDN5) [3]: alleviated a hypoxia-induced decrease in the epithelial markers | Expression of mesenchymal markers (Slug, Fibronectin, N-cadherin, Vimentin, FOXC2, Zeb1, Zeb2) ([3]; dose-dependent): restrained the increases in the expression of mesenchymal markers | Number of CXCR4+CD34+ stem cells mobilized, relative to AMD3100 [4]: roughly 1.5 fold
